Counter-ions that a name gives are not always drawn.
What was measured:
[1] = literature series of mainly imidazolium compounds; cited from earlier work
Rats = test: Rat myocardial infarct after ligation of the left anterior descending coronary artery; assay type: in vivo; details: 10 mg/kg daily intraperitoneal, 30 days before and 14 days after coronary ligation
Method: Rats received a daily intraperitoneal dose of 10 mg/kg 3-[2-phenyl-2-oxoethyl]-4,5-dimethyl-thiazolium salt (compound A) (n=14) or placebo (n=15) for 30 days. The animals then underwent a thoracotomy and the left anterior descending coronary artery ligated. The chest was then closed and the animals allowed to recover for 14 days while continuing to be treated with compound A or placebo. The animals were then sacrificed and the hearts removed for histological examination. The weight of the infarcted tissue was 0.16±0.04 g for the placebo treated animals compared to 0.11±0.05 g for the compound A treated animals (p=0.04).

[2] = test system: elderly patients with pulse pressures greater than 60 mm Hg; test: Phase IIa clinical trial; assay type: in vivo, human
Text: When the heart pumps blood into the vascular system, the ability of the arteries to expand helps to push blood through the body. When arteries become stiff, as they do in the natural process of aging, the ability of the arteries to expand is diminished and also has consequences for the heart. The heart has to work harder to pump the blood into the stiff arteries, and eventually hypertrophies (enlarges in size) to accomplish this. A hypertrophied heart is an inefficient pump, and is one of the disorders that leads to congestive heart failure. […] The potential clinical benefit of this is to lessen the effort that the heart must expend to push blood throughout the body. The effect is also believed to contribute to preventing hypertrophy and subsequent inefficiency of the heart, which inefficiency would contribute to congestive heart failure.
Atherosclerosis is a disease that involves deposition of blood lipids in plaque in the arteries throughout the body. In coronary arteries, accumulation of plaque progressively leads to reduced coronary flow, with occlusion of the arteries causing focal death of cardiac tissue (myocardial infarction, heart attack). If the amount of tissue that dies is large enough, death ensures. In a Phase IIa trial, one compound believed to work by a mechanism shared by the compounds of the invention, 3-[2-phenyl-2-oxoethyl]-4,5-dimethyl-thiazolium salt, […] the amount of circulating triglycerides (lipids). […] Reducing local deposits of plaque should eventually lessen the risk of myocardial infarction and death due to heart attacks.
Pulse pressure is the difference between systolic and diastolic blood pressure. In a young human, systolic pressure is typically 120 mm Hg and diastolic pressure is 80 mm Hg, resulting in a pulse pressure of 40 mm Hg. With age, in many individuals pulse pressure increases, largely due to the increase in systolic pressure that results from stiff vessel disease. In individuals with pulse pressure greater than 60 mm Hg there is an increased risk of death from cardiovascular morbidities.

dog model for diabetes = test: Dog model for diabetes, ventricular elasticity; assay type: in vivo
Text: (§1) Cardiovascular risk correlates more closely with the systolic and the pulse pressure than with the diastolic pressure. In diabetic patients, the cardiovascular risk profile of diabetic patients is strongly correlated to duration of diabetes, glycemic control and blood pressure. Structural matrix proteins contribute to the function of vessels and the heart, and changes in the physical behavior of cardiovascular walls are believed to be important determinants of circulatory function. In elderly individuals, the loss of compliance in the aorta leads to isolated systolic hypertension, which in turn expands the arterial wall and thereby diminishes the dynamic range of elasticity. […] Treatment with 3-[2-phenyl-2-oxoethyl]-4,5-dimethyl-thiazolium salt lead to a reduction in the mass of collagen in cardiovascular tissues.

[3] = test system: rodents, canines and primates; test: In vivo studies of vascular stiffening and collagen mass in cardiovascular tissues
Text: as §1

Type IV collagen = test: In situ hybridization studies, Type IV collagen expression
Text: as §1

TGFbeta = test: In situ hybridization studies, TGFbeta expression
Text: as §1

Compound | glucose lowering effect [1] | thickness of the ventricular wall in the infarcted zone (Rats; p=0.09 vs placebo) | weight of the infarcted tissue (Rats; placebo 0.16±0.04 g, p=0.04) | stiffness of arteries, measured by the ratio of stroke volume (ml) to pulse pressure (mm Hg) ([2]; Phase IIa clinical trial) | amount of circulating triglycerides (lipids) ([2]; Phase IIa trial) | pulse pressure ([2]; Phase IIa trial, elderly patients with pulse pressures greater than 60 mm Hg, statistically significant) | end diastolic pressure and end diastolic volume, indicators of ventricular elasticity (dog model for diabetes) | mass of collagen in cardiovascular tissues ([3]; in vivo) | vascular stiffening ([3]; in vivo studies in rodents, canines and primates) | expression of Type IV collagen (Type IV collagen) | expression of TGFbeta (TGFbeta)
3-[2-(3,5-Dimethoxyphenyl)-2-oxoethyl]-oxazolium | inactive |  |  |  |  |  |  |  |  |  | 
Cc1sc[n+](CC(=O)c2ccccc2)c1C [compound A, 3-[2-phenyl-2-oxoethyl]-4,5-dimethyl-thiazolium salt] |  | 2.56±0.22 mm | 0.11 ± 0.05 g | reverse the stiffness of arteries | increased | reduced | returned to a value at about the mid-point between the disease impaired value and the value for control dogs | reduction | substantially ameliorating vascular stiffening | reduces | reduces

— patent publication US7166625B2, “Method for treating fibrotic diseases and other indications” (Alteon, Inc., priority 2000, dated 2007)
